# Test results as given in patent US20200188361A1, “USE OF MITOCHONDRIAL ACTIVITY INHIBITORS FOR THE TREATMENT OF POOR PROGNOSIS ACUTE MYELOID LEUKEMIA” (UNIVERSITE DE MONTREAL, priority 2016, published 2020).
# Where two headings read alike, the source gives them in different places.
# Experiments:
# [1] = tested on: OCI-AML3 cells; experiment: Dose-response curves in AML cell line (6-day culture assay in 384-well plates); format: cell-based; conditions: dose-response curves FIGS. 5H-J
# Protocol: FIGS. 5A-5J show the results on experiments assessing the mode of action of Mubritinib for mediating tumor cell death. FIG. 5A: OCI-AML3 leukemic cells were either pre-incubated for 4 hours with 6 mM N-acetyl-cysteine (NAC), a reactive oxygen species (ROS) scavenger, or with vehicle (water) before being treated with 100 nM Mubritinib for 24 h or vehicle (DMSO). […] FIGS. 5C and 5D show the levels of reduced and oxidized levels of glutathione, respectively, in OCI-AML3 treated or not with Mubritinib, as detected by liquid chromatography-mass spectrometry (LC/MS). […] FIG. 5G is a graph depicting dose-response curves upon Mubritinib treatment (6-day culture assay in 384-well plates) of OCI-AML3 and OCI-AML5 cell lines. FIGS. 5H-J are graphs depicting dose-response curves following treatment of OCI-AML3 and OCI-AML5 cell lines with other ETC inhibitors, namely Oligomycin (inhibitor of complex V, FIG. 5H), Rotenone (inhibitor of complex I, FIG. 5I) and Deguelin (inhibitor of complex I, FIG. 5J).
# OCI-AML3 cells were maintained in alpha-MEM, 20% FBS whereas breat tumor BT474 cells were maintained in DMEM 10% FBS.
# (§1) Patient cells were seeded in 384-well plates at a density of 5,000 cells in 50 μL per well. In the initial screen, compounds were added to seeded cells in serial dilutions (10 dilutions, 1:3, starting from 10 μM or 20 μM), in duplicates. Cells treated with 0.1% DMSO without additional compound were used as negative controls. Viable cell counts per well were evaluated after 6 days of culture using the CellTiterGlo® assay (Promega®) according to the manufacturer's instruction. The percent of inhibition was calculated as follows: 100−(100×(mean luminescence(compound)/mean luminescence(DMSO)); where mean-luminescence(compound) corresponds to the average of luminescent signals obtained for the compound-treated cells, and mean-luminescence(DMSO) corresponds to the average of luminescent signals obtained for the control DMSO-treated cells.
# [2] = tested on: HOX-high AML patient cells; experiment: Primary chemical screen of 60 compounds, cell dose-response viability assay (CellTiterGlo, 6 days); format: cell-based, human; conditions: for EC50: read-out: MEAN EC50 HOX-high
# Protocol: (§2) frozen AML mono-nucleated cells were thawed at 37° C. in Iscove's modified Dulbecco's medium (IMDM) containing 20% FBS and DNase I (100 μg/mL).
# (§3) All powders were dissolved in DMSO and diluted in culture medium immediately before use. Final DMSO concentration in all conditions was 0.1%. The 60 compounds were purchased from various suppliers including Santa Cruz, Selleckchem, Calbiochem, AdooQ Bioscience, Cayman chemical and Synkinase.
# (§4) Patient cells were seeded in 384-well plates at a density of 5,000 cells in 50 μL per well. In the initial screen, compounds were added to seeded cells in serial dilutions (10 dilutions, 1:3, starting from 10 μM or 20 μM), in duplicates. Cells treated with 0.1% DMSO without additional compound were used as negative controls. Viable cell counts per well were evaluated after 6 days of culture using the CellTiterGlo® assay (Promega®) according to the manufacturer's instruction.
# (§5) Using high expression of HOXA9 and HOXA10 as a surrogate for the detection of HOX-network-high patient samples, the survival of HOX-high versus HOX-med/low specimens contacted with 60 inhibitors targeting receptor tyrosine kinases (RTK), members of the RAS and PI3K pathways, was assessed (FIG. 2A, Table 4).
# [3] = tested on: HOX-med/low AML patient cells; experiment: as above; format: cell-based, human; conditions: read-out: MEAN EC50 HOX-med/low
# Protocol: as §2, §3, §4, §5
# [4] = tested on: AML patient specimens; experiment: Cell dose-response viability assay on AML patient specimens (primary and validation screen); format: cell-based, human; conditions: all 41 AML patient specimens tested, primary screen (FIG. 4D)
# Protocol: as §2, §1
# [5] = Homo sapiens, 144 h, primary screen, mean over HOX-high patient specimens, 6 days culture, top concentration 10 μM or 20 μM
# [6] = ratio of mean EC50 HOX-high to mean EC50 HOX-med/low
# [7] = Homo sapiens, 144 h, primary screen, mean over HOX-med/low patient specimens, 6 days culture, top concentration 10 μM or 20 μM
# [8] = primary screen, mean over HOX-high patient specimens, 6 days culture, top concentration 10 μM or 20 μM
# [9] = primary screen, mean over HOX-med/low patient specimens, 6 days culture, top concentration 10 μM or 20 μM
Structure (SMILES),"EC50 [2, 5] [nM]","FOLD CHANGE High/Med-low [2, 6]","EC50 [3, 7] [nM]","EC50 [3, 9] [nM]",also measured
COc1cc2c(cc1OC)[C@@H]1C(=O)c3ccc4c(c3O[C@@H]1CO2)C=CC(C)(C)O4 [Deguelin],–,–,–,–,sensitivity of OCI-AML3 relative to OCI-AML5 [1]: more sensitive than OCI-AML5
"CS(=O)(=O)CCNCc1ccc(-c2ccc3ncnc(Nc4ccc(OCc5cccc(F)c5)c(Cl)c4)c3c2)o1 [Lapatinib ditosylate., Lapatinib ditosylate]",8870,0.9,9920,–,sensitivity of AML patient specimens [4]: resistant
CC[C@H]1/C=C/C=C/C[C@@H](C)[C@H](O)[C@@](C)(O)C(=O)[C@@H](C)[C@H](O)[C@@H](C)C(=O)[C@@H](C)[C@H](O)[C@@H](C)/C=C/C(=O)O[C@@H]2[C@H](C)[C@H](CC1)O[C@]1(CC[C@H](C)[C@H](C[C@@H](C)O)O1)[C@H]2C [Oligomycin],–,–,–,–,sensitivity of OCI-AML3 relative to OCI-AML5 [1]: more sensitive than OCI-AML5
Nc1ncnc2c1c(-c1cccc(OCc3ccccc3)c1)cn2C1CC(CN2CCC2)C1 (stereo not drawn) [NVPAEW541],–,1.0,–,1770,"EC50 [2, 8]: 1730 nM"
Cc1ccc(C(=O)Nc2cccc(C(F)(F)F)c2)cc1Nc1nc(-c2cccnc2)nc2c1cnn2C [NVPBHG712],–,0.9,–,5210,"EC50 [2, 8]: 4440 nM"
c1cc(CN2CCCNCCNCCCNCC2)ccc1CN1CCCNCCNCCCNCC1 [AMD3100],9590,1.0,> 10000,–,–
Cn1cncc1[C@@](N)(c1ccc(Cl)cc1)c1ccc2c(c1)c(-c1cccc(Cl)c1)cc(=O)n2C [Tipifarnib],109,0.7,158,–,–
Nc1nc(Nc2ccc3c(c2)CCC(N2CCCC2)CC3)nn1-c1cc2c(nn1)-c1ccccc1CCC2 (stereo not drawn) [R428],–,0.8,–,592,"EC50 [2, 8]: 487 nM"
"Cn1cnc2c(F)c(Nc3ccc(Br)cc3Cl)c(C(=O)NOCCO)cc21 [Selumetinib AZD6244., Selumetinib]",1240,0.9,1380,–,–
CO[C@H]1C[C@@H]2CC[C@@H](C)[C@@](O)(O2)C(=O)C(=O)N2CCCC[C@H]2C(=O)O[C@H]([C@H](C)C[C@@H]2CC[C@@H](O)[C@H](OC)C2)CC(=O)[C@H](C)/C=C(\C)[C@@H](O)[C@@H](OC)C(=O)[C@H](C)C[C@H](C)/C=C/C=C/C=C/1C [Rapamycin],1890,2.0,951,–,–
Cc1nc2cc3nc(-c4cccs4)cnc3cc2n1C [AGL2043],–,1.1,–,8380,"EC50 [2, 8]: 8880 nM"
Cc1ccc(NC(=O)c2cccc(N(C)C)c2)cc1NC(=O)c1ccc(O)cc1 [ZM336372],–,1.1,–,8880,"EC50 [2, 8]: > 10000 nM"
"COc1ccc(-c2ccc3c(N4CCOC[C@@H]4C)nc(N4CCOC[C@@H]4C)nc3n2)cc1CO [AZD8055, (5-(2,4-bis((S)-3-methylmorpholino)pyrido[2,3-d]pyrimidin-7-yl)-2-methoxyphenyl)methanol]",324,4.7,69.2,–,–
COc1cccc(-c2cc(=O)c3ccccc3o2)c1N [PD98059],–,1.0,–,> 10000,–
C=C(C)[C@H]1Cc2c(ccc3c2O[C@@H]2COc4cc(OC)c(OC)cc4[C@@H]2C3=O)O1 [Rotenone],–,–,–,–,sensitivity of OCI-AML3 relative to OCI-AML5 [1]: more sensitive than OCI-AML5
Cc1nc(Nc2ncc(C(=O)Nc3c(C)cccc3Cl)s2)cc(N2CCN(CCO)CC2)n1 [Dasatinib],774,2.4,322,–,–
C[S+]([O-])c1ccc(-c2nc(-c3ccc(F)cc3)c(-c3ccncc3)[nH]2)cc1 (stereo not drawn) [SB.203580],–,–,–,–,FOLD CHANGE High/Med-low [2]: 1.0; EC50 [2]: > 10000 nM; EC50 [3]: > 10000 nM
